In brackets after ≈: the same amount, converted by molar mass.
Experiments:
[1] = system: GTPase KRas (Homo sapiens), P01116 [G12C]; experiment: Displacement of [acrylamide-2,3-3H2]-N-(3-fluoro-4-(2-methyl-3-(5-methyl-1H- indazole-4-yl)-1H-pyrrolo[ 2,3-b]pyridin-1-yl)-phenyl from KRAS G12C mutant (unknown origin) assessed as ratio of Kinact/Ki by competitive scintillation proximity assay
[2] = target: GTPase KRas (Homo sapiens, UniProt P01116, G12C); experiment: Inhibition of KRAS G12C mutant in human NCI-H358 cells assessed as reduction in ERK phosphorylation incubated for 6 hrs by MSD assay; assay type: cell-based
[3] = Aqueous solubility of compound in pH 6.8; assay type: physicochemical; conditions: aqueous medium
[4] = Lipophilicity, logD of compound at pH 7.4; assay type: physicochemical; conditions: buffer
[5] = system: GTPase KRas (Homo sapiens), P01116 [G12C]; experiment: In vivo target occupancy at KRAS G12C mutant in human MIA PaCa-2 cells xenografted mouse assessed as decrease in […] expression at 30 mg/kg, po after 24 hrs; assay type: functional, organism-based
[6] = Apparent permeability across apical to basolateral side in MDCK-MDR1 cells at 10 uM after 2 hrs by LC-MS/MS analysis; assay type: ADME, cell-based, Canis lupus familiaris; conditions: dog
[7] = AUC in human MIA PaCa-2 cells xenografted mouse at 30 mg/kg, po; assay type: ADME, organism-based; design: dose 30 mg/kg, route po; conditions: in vivo
[8] = system: GTPase KRas (Homo sapiens), P01116 [G12C]; experiment: In vivo target occupancy at KRAS G12C mutant in human MIA PaCa-2 cells xenografted mouse assessed as decrease in free KRAS G12C level at 30 mg/kg, po after 6 hrs; assay type: functional, organism-based
[9] = system: GTPase KRas (Homo sapiens), P01116 [G12C]; experiment: In vivo target occupancy at KRAS G12C mutant in human MIA PaCa-2 cells xenografted mouse assessed as decrease in free KRAS G12C level at 30 mg/kg, po after 24 hrs; assay type: functional, organism-based
[10] = system: GTPase KRas (Homo sapiens), P01116 [G12C]; experiment: In vivo target occupancy at KRAS G12C mutant in human MIA PaCa-2 cells xenografted mouse assessed as decrease in […] expression at 30 mg/kg, po after 6 hrs; assay type: functional, organism-based
[11] = Cmax in human MIA PaCa-2 cells xenografted mouse at 30 mg/kg, po; assay type: ADME, organism-based; design: dose 30 mg/kg, route po; conditions: in vivo
[12] = Cysteine reactivity in pH 7.4 phosphate buffer assessed as compound half life at 2 uM in presence of GSH
[13] = Aqueous solubility of compound in pH 4; assay type: physicochemical; conditions: aqueous medium
[14] = system: GTPase KRas (Homo sapiens), P01116 [G12C]; experiment: In vivo target occupancy at KRAS G12C mutant in human MIA PaCa-2 cells xenografted mouse assessed as decrease in […] expression at 30 mg/kg, po after 3 hrs; assay type: functional, organism-based
[15] = system: GTPase KRas (Homo sapiens), P01116 [G12C]; experiment: In vivo target occupancy at KRAS G12C mutant in human MIA PaCa-2 cells xenografted mouse assessed as decrease in free KRAS G12C level at 30 mg/kg, po after 3 hrs; assay type: functional, organism-based

In the case of `C=CC(=O)N1CC2(CC(n3nc(-c4cccnc4)c(-c4c(Cl)c(C)cc5[nH]ncc45)c3C)C2)C1`, the Ratio [1] is reported as 10 mM⁻¹ s⁻¹ and the IC50 [2] is reported as 90 nM.

`C=CC(=O)N1CC2(CC(n3nc(-c4ccc5nn(CCOC)cc5c4)c(-c4c(Cl)c(C)cc5[nH]ncc45)c3C)C2)C1` showed a solubility [3] of 30 µM (≈ 17.1 µg/mL), a Ratio [1] of 225 mM⁻¹ s⁻¹ and a logD [4] of 4.2. For the same molecule, the Occ [5] was 59%, the Papp A→B at 2 h, 10 µM [6] was 5.4 ×10⁻⁶ cm/s and the AUC [7] was 7.3 µM·h. It also gave an IC50 [2] of 4 nM, an Occ [8] of 37% and an Occ [9] of 78%. The Occ [10] was 45% and the Cmax [11] was 4300 nM.

With `C=CC(=O)Nc1ccc(-n2nc(C)c(-c3c(C)ccc4[nH]ncc34)c2C)cc1` the Ratio [1] was 0.1 mM⁻¹ s⁻¹.

`C=CC(=O)N1CC2(CC(n3nc(C(C)C)c(-c4c(C)ccc5[nH]ncc45)c3C)C2)C1` showed a Ratio [1] of 0.4 mM⁻¹ s⁻¹ and an IC50 [2] of 3900 nM.

With `C=CC(=O)N1CC2(CC(n3nc(-c4ccc5cn[nH]c5c4)c(-c4c(Cl)c(C)cc5[nH]ncc45)c3C)C2)C1` the Ratio [1] was 19 mM⁻¹ s⁻¹ and the IC50 [2] was 50 nM.

Molecule `C=CC(=O)Nc1ccc(-n2nc(C(C)C)c(-c3c(C)ccc4[nH]ncc34)c2C)c(F)c1` has a Ratio [1] of 6 mM⁻¹ s⁻¹, a T1/2 [12] of 20 min and an IC50 [2] of 500 nM.

`C=CC(=O)N1CC2(CC(n3nc(-c4ccc5nn(CCN6CCOCC6)cc5c4)c(-c4c(Cl)c(C)cc5[nH]ncc45)c3C)C2)C1` gave a solubility [3] of 30 µM (≈ 18.8 µg/mL), a Ratio [1] of 190 mM⁻¹ s⁻¹ and a logD [4] of 4.2. For the same molecule, the Papp A→B at 2 h, 10 µM [6] was 2.8 ×10⁻⁶ cm/s, the IC50 [2] was 10 nM and the solubility [13] was greater than 1000 µM.

In the case of `C=CC(=O)N1CC2(CC(n3nc(C4CCCCC4)c(-c4c(Cl)ccc5[nH]ncc45)c3C)C2)C1`, the Ratio [1] is reported as 0.9 mM⁻¹ s⁻¹ and the IC50 [2] is reported as 700 nM.

In the case of `C=CC(=O)N1CC2(CC(n3nc(-c4cccnc4)c(-c4c(Cl)c(C)cc5[nH]ncc45)c3CC#N)C2)C1`, the Ratio [1] is reported as 0.2 mM⁻¹ s⁻¹.

In the case of `C=CC(=O)Nc1ccc(-c2nn(C(C)C)c(-c3c(C)ccc4[nH]ncc34)c2C)c(F)c1`, the Ratio [1] is reported as 0.2 mM⁻¹ s⁻¹ and the T1/2 [12] is reported as 57 min.

Molecule `C=CC(=O)N1CC2(CC(n3nc(-c4cccnc4)c(-c4c(Cl)ccc5[nH]ncc45)c3C)C2)C1` has a Ratio [1] of 1.3 mM⁻¹ s⁻¹ and an IC50 [2] of 500 nM.

Work on `C=CC(=O)N1CC2(CC(n3nc(-c4ccc5c(cnn5CCOC)c4)c(-c4c(Cl)c(C)cc5[nH]ncc45)c3C)C2)C1` yielded an Occ [14] of 100%, a solubility [3] of 10 µM (≈ 5.7 µg/mL) and a Ratio [1] of 190 mM⁻¹ s⁻¹. It also gave a logD [4] of 4.5, an Occ [5] of 100% and an AUC [7] of 1.5 µM·h. It also gave an IC50 [2] of 8 nM, an Occ [9] of 100% and an Occ [15] of 100%. The Cmax [11] was 600 nM.

Reference: ChEMBL document CHEMBL5236595, “JDQ443, a Structurally Novel, Pyrazole-Based, Covalent Inhibitor of KRASG12C for the Treatment of Solid Tumors” (J Med Chem, 2022)
